Laboratory results: ChEMBL document CHEMBL1201862, “PubChem BioAssay data set” (2004)
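Interpolation was linear, between the two tested concentrations surrounding the appropriate level; five concentrations were tested over 48 hours in 96-well plates. At the GI50, growth is halved.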 Activity calls are given as the source filed them. Rule as the data show it: active = GI50 up to about 1.1 µM and inactive = higher.

What was measured:
Assay in all cases: DTP human tumour cell line panel, 48 h
SN12C = tested on: SN12C
NCI-H522 = tested on: NCI-H522
SF-295 = tested on: SF-295
PC-3 = tested on: PC-3
RPMI-8226 = tested on: RPMI-8226
Malme-3M = tested on: Malme-3M
CCRF-CEM = tested on: CCRF-CEM
SNB-19 = tested on: SNB-19
SK-MEL-5 = tested on: SK-MEL-5
NCI-H23 = tested on: NCI-H23
HCC 2998 = tested on: HCC 2998
MDA-MB-231 = tested on: MDA-MB-231
NCI-H226 = tested on: NCI-H226
ACHN = tested on: ACHN
HT-29 = tested on: HT-29
CAKI-1 = tested on: CAKI-1
MDA-MB-435 = tested on: MDA-MB-435
SF-539 = tested on: SF-539
OVCAR-3 = tested on: OVCAR-3
SK-MEL-28 = tested on: SK-MEL-28

Measured: GI50

CC1OC(n2cc(F)c(=O)[nH]c2=O)C(O[Si](C)(C)C(C)(C)C)C1O[Si](C)(C)C(C)(C)C (centres undefined)
inactive: SN12C 12.4 µM | NCI-H522 4.34 µM | SF-295 11.5 µM | PC-3 11 µM | RPMI-8226 11.6 µM | Malme-3M 14.9 µM | CCRF-CEM 16.6 µM | SNB-19 14.7 µM | SK-MEL-5 14.9 µM | NCI-H23 10.6 µM | HCC 2998 13.4 µM | MDA-MB-231 5.78 µM | NCI-H226 16.2 µM | ACHN 14 µM | HT-29 10.8 µM | CAKI-1 13.6 µM | MDA-MB-435 17.9 µM | SF-539 12.6 µM | OVCAR-3 15 µM

CC1Cc2cc(O)c(O)cc2-c2cc(O)c(O)cc2CC1C (centres undefined)
inactive: SN12C 20.9 µM | NCI-H522 9.57 µM | SF-295 4.41 µM | PC-3 19.3 µM | RPMI-8226 32.4 µM | Malme-3M 5.62 µM | CCRF-CEM 14.1 µM | SNB-19 26.5 µM | SK-MEL-5 4.81 µM | NCI-H23 14.8 µM | HCC 2998 17.4 µM | MDA-MB-231 6.71 µM | NCI-H226 24.3 µM | ACHN 24.6 µM | HT-29 24 µM | CAKI-1 17.8 µM | MDA-MB-435 3.16 µM | SF-539 5.85 µM | OVCAR-3 10.9 µM | SK-MEL-28 11.9 µM

COc1ccc(CN/C=N/C(C#N)=C(\N)C#N)cc1OC
inactive: SN12C > 100 µM | NCI-H522 > 100 µM | SF-295 > 100 µM | PC-3 > 100 µM | RPMI-8226 > 100 µM | Malme-3M > 100 µM | CCRF-CEM > 100 µM | SNB-19 > 100 µM | SK-MEL-5 > 100 µM | NCI-H23 > 100 µM | HCC 2998 > 100 µM | MDA-MB-231 > 100 µM | NCI-H226 > 100 µM | ACHN > 100 µM | HT-29 > 100 µM | CAKI-1 > 100 µM | MDA-MB-435 > 100 µM | SF-539 > 100 µM | OVCAR-3 > 100 µM | SK-MEL-28 > 100 µM

CCCCNc1nc(NC2OCC(OC(C)=O)C(OC(C)=O)C2OC(C)=O)c(N=O)c(=O)n1C (centres undefined)
inactive: SN12C > 10 µM | NCI-H522 > 10 µM | SF-295 > 10 µM | PC-3 > 10 µM | RPMI-8226 > 10 µM | Malme-3M > 10 µM | CCRF-CEM > 10 µM | SNB-19 > 10 µM | SK-MEL-5 > 10 µM | NCI-H23 > 10 µM | HCC 2998 > 10 µM | MDA-MB-231 > 10 µM | NCI-H226 > 10 µM | ACHN > 10 µM | HT-29 > 10 µM | CAKI-1 > 10 µM | MDA-MB-435 > 10 µM | SF-539 > 10 µM | OVCAR-3 > 10 µM | SK-MEL-28 > 10 µM

O=[N+]([O-])c1cc(C(F)(F)F)cc2n[se]nc12
inactive: SN12C 4.88 µM | NCI-H522 3.13 µM | SF-295 12.5 µM | PC-3 4 µM | RPMI-8226 1.21 µM | Malme-3M 1.79 µM | CCRF-CEM 1.68 µM | SNB-19 15.5 µM | SK-MEL-5 3.24 µM | NCI-H23 3.93 µM | HCC 2998 3.98 µM | MDA-MB-231 2.13 µM | NCI-H226 20.6 µM | ACHN 2.65 µM | HT-29 7.29 µM | CAKI-1 4.6 µM | MDA-MB-435 2.33 µM | SF-539 3.89 µM | OVCAR-3 1.67 µM | SK-MEL-28 2.22 µM

NC(=O)c1ncn2c(=O)n(CCl)nnc12
inactive: SN12C > 100 µM | NCI-H522 96.8 µM | SF-295 > 100 µM | PC-3 > 100 µM | RPMI-8226 24.3 µM | Malme-3M > 100 µM | CCRF-CEM 22.4 µM | SNB-19 > 100 µM | SK-MEL-5 > 100 µM | NCI-H23 > 100 µM | HCC 2998 > 100 µM | MDA-MB-231 > 100 µM | NCI-H226 > 100 µM | ACHN 47.9 µM | HT-29 43.2 µM | CAKI-1 > 100 µM | MDA-MB-435 > 100 µM | SF-539 72.8 µM | OVCAR-3 > 100 µM | SK-MEL-28 > 100 µM

O=C(Nc1ccccc1)c1nn(-c2cc(S(=O)(=O)O)c([N+](=O)[O-])cc2Cl)[n+](-c2cc(S(=O)(=O)[O-])c([N+](=O)[O-])cc2Cl)n1
inactive: SN12C > 100 µM | NCI-H522 > 100 µM | SF-295 > 100 µM | PC-3 > 100 µM | RPMI-8226 > 100 µM | Malme-3M > 100 µM | CCRF-CEM > 100 µM | SNB-19 > 100 µM | SK-MEL-5 > 100 µM | NCI-H23 > 100 µM | HCC 2998 > 100 µM | MDA-MB-231 43.6 µM | NCI-H226 > 100 µM | ACHN > 100 µM | HT-29 > 100 µM | CAKI-1 > 100 µM | MDA-MB-435 > 100 µM | SF-539 > 100 µM | OVCAR-3 > 100 µM | SK-MEL-28 > 100 µM
